According to patent US20110230481A2, “DERIVATIVES OF TETRABROMOBENZIMIDAZOLE, A PROCESS FOR THE PREPARATION THEREOF, A PHARMACEUTICAL COMPOSITION COMPRISING THE SAME, A METHOD OF USING THE SAME, A METHOD FOR MODULATING OR REGULATING SERINE/THREONINE KINASES, AND SERINE/THREONINE KINASES MODULATING AGENT” (SELVITA S.A., priority 2009, published 2011):

How the values were obtained:
Test in all cases: KINOMEscan Max
Type in all cases: binding
[1] = target: T1, ABL1(F317I)-nonphosphorylated (Homo sapiens, UniProt P00519, F317I)
T1 construct: purchased Ambit (KINOMEscan Max service)
Method in brief: (§1)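 Immobilized active-site directed ligand captures DNA-tagged kinase unless test compound competes it off; captured kinase is then quantified by qPCR of the DNA tag.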

[2] = target: ABL1(H396P)-phosphorylated (Homo sapiens, UniProt P00519, H396P)
Method in brief: as §1

AKT2 = AKT2 (Homo sapiens, UniProt P31751)
Method in brief: as §1

CAMK2A = CAMK2A (Homo sapiens, UniProt Q9UQM7)
Method in brief: as §1

CDK4-cyclinD3 = CDK4-cyclinD3 (Homo sapiens, UniProt P11802)
Method in brief: as §1

CDK5 = target: T2, CDK5 (Homo sapiens, UniProt Q00535)
T2 construct: DNA tag (qPCR label); purchased Ambit Kinomescan (contract screening)
Method in brief: as §1

CLK2 = target: T3, CLK2 (Homo sapiens, UniProt P49760)
T3 construct: DNA tag (qPCR read-out)
Method in brief: as §1

CSNK1G3 = CSNK1G3 (Homo sapiens, UniProt Q9Y6M4); details: 1 μM
Method in brief: as §1

DAPK1 = target: T4, DAPK1 (Homo sapiens, UniProt P53355)
T4 construct: DNA tag (qPCR read-out)
T4 sequence (P53355 whole entry): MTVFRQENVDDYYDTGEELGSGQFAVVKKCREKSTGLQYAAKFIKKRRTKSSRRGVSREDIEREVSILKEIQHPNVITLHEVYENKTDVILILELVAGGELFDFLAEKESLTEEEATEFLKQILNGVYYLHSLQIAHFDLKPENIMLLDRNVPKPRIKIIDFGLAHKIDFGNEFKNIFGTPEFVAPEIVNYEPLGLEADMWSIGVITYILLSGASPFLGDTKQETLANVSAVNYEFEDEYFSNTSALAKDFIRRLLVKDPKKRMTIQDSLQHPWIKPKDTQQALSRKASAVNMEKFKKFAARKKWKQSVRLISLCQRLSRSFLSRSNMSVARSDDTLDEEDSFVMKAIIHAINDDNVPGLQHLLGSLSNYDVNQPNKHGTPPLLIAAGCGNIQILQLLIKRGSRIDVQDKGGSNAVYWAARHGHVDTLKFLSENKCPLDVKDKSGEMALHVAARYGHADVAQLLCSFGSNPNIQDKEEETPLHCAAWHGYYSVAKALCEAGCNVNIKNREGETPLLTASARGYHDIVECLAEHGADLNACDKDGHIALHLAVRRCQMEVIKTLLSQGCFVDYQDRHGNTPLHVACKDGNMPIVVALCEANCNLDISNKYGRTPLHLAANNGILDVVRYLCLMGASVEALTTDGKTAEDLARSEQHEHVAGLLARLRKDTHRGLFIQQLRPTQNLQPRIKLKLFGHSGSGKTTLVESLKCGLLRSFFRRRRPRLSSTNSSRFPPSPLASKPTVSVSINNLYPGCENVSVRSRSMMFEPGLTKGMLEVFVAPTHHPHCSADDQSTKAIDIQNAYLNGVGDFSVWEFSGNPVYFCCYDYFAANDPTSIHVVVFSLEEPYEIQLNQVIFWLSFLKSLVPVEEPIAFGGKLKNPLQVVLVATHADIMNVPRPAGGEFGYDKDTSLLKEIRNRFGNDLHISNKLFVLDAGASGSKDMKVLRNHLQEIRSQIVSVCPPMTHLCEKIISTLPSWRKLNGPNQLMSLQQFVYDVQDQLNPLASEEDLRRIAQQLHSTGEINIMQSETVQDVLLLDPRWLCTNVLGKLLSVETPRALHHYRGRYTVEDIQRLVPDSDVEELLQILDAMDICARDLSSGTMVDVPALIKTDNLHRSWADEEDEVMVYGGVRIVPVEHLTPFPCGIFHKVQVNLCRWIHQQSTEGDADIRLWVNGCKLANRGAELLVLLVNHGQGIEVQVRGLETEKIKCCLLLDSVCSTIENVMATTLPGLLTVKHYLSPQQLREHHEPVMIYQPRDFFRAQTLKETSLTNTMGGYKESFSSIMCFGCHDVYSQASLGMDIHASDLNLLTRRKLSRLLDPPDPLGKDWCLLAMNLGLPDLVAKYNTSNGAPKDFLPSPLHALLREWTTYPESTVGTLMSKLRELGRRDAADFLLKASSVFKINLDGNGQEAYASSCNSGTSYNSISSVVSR
Method in brief: as §1

DYRK1B = target: T5, DYRK1B (Homo sapiens, UniProt Q9Y463)
T5 construct: DNA tag (qPCR read-out); purchased Ambit Kinomescan
Method in brief: as §1

EPHA1 = target: T6, EPHA1 (Homo sapiens, UniProt P21709)
T6 construct: purchased Ambit (KINOMEscan Max panel service)
Method in brief: as §1

EPHB1 = target: T7, EPHB1 (Homo sapiens, UniProt P54762)
T7 construct: purchased Ambit (KINOMEscan Max panel service)
T7 sequence (P54762 18-984): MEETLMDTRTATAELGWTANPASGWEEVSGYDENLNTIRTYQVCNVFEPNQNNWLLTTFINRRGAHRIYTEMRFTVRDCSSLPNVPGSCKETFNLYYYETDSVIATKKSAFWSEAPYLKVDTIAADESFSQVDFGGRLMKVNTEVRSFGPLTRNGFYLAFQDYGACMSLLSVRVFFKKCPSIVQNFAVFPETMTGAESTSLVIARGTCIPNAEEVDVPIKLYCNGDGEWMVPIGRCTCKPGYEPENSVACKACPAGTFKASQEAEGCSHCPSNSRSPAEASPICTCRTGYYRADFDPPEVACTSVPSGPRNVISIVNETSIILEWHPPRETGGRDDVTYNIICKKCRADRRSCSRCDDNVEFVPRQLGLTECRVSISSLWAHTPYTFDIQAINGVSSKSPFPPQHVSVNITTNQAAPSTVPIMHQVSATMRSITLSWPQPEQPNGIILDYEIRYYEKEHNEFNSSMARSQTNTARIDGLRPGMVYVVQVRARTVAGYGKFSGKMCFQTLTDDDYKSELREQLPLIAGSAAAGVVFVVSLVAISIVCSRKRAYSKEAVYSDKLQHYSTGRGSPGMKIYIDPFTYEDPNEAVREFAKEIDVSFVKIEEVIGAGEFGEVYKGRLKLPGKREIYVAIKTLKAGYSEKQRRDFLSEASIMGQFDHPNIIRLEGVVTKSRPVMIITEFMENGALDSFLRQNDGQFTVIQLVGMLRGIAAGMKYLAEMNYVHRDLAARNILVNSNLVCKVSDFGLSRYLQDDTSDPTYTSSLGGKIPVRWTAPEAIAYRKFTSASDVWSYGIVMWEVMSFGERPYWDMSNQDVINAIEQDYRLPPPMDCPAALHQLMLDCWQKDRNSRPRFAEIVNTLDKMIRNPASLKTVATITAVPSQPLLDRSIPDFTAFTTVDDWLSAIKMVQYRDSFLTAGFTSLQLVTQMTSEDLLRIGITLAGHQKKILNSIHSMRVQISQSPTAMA
Method in brief: as §1

ERK2 = target: T8, ERK2 (Homo sapiens, UniProt P28482)
T8 construct: purchased Ambit Kinomescan (contract panel, KINOMEscan Max)
Method in brief: as §1

ERK4 = target: T9, ERK4 (Homo sapiens, UniProt P31152)
T9 construct: purchased Ambit Kinomescan (contract screening)
Method in brief: as §1

FGR = target: T10, FGR (Homo sapiens, UniProt P09769)
T10 construct: purchased Ambit Kinomescan (contract panel, KINOMEscan Max)
Method in brief: as §1

FLT3(D835Y) = target: T11, FLT3(D835Y) (Homo sapiens, UniProt P36888, D835Y)
T11 construct: DNA tag (qPCR read-out); purchased Ambit Kinomescan
Method in brief: as §1

IRAK1 = target: T12, IRAK1 (Homo sapiens, UniProt P51617)
T12 construct: DNA tag (qPCR read-out)
Method in brief: as §1

IRAK3 = target: T13, IRAK3 (Homo sapiens, UniProt Q9Y616)
T13 construct: purchased Ambit (KINOMEscan Max service)
T13 sequence (Q9Y616 whole entry): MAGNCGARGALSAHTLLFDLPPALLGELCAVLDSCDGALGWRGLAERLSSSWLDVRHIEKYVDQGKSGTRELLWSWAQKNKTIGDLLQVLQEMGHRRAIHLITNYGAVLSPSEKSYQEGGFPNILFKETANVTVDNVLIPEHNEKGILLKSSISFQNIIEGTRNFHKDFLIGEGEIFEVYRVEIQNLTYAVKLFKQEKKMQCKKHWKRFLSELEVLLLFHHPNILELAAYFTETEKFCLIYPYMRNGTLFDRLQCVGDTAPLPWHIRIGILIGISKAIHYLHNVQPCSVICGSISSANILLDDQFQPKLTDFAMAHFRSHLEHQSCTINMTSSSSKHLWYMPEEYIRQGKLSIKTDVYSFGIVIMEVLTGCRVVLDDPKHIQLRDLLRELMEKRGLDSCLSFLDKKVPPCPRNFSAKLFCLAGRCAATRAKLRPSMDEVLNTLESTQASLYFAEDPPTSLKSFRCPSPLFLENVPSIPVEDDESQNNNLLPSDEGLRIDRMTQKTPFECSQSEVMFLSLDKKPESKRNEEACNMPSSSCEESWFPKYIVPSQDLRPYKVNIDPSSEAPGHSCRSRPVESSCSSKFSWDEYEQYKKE
Method in brief: as §1

LIMK1 = LIMK1 (Homo sapiens, UniProt P53667)
Method in brief: as §1

LOK = target: T14, LOK (Homo sapiens, UniProt O94804); details: 1 μM
T14 construct: purchased Ambit Kinomescan (contract panel)
T14 sequence (O94804 whole entry): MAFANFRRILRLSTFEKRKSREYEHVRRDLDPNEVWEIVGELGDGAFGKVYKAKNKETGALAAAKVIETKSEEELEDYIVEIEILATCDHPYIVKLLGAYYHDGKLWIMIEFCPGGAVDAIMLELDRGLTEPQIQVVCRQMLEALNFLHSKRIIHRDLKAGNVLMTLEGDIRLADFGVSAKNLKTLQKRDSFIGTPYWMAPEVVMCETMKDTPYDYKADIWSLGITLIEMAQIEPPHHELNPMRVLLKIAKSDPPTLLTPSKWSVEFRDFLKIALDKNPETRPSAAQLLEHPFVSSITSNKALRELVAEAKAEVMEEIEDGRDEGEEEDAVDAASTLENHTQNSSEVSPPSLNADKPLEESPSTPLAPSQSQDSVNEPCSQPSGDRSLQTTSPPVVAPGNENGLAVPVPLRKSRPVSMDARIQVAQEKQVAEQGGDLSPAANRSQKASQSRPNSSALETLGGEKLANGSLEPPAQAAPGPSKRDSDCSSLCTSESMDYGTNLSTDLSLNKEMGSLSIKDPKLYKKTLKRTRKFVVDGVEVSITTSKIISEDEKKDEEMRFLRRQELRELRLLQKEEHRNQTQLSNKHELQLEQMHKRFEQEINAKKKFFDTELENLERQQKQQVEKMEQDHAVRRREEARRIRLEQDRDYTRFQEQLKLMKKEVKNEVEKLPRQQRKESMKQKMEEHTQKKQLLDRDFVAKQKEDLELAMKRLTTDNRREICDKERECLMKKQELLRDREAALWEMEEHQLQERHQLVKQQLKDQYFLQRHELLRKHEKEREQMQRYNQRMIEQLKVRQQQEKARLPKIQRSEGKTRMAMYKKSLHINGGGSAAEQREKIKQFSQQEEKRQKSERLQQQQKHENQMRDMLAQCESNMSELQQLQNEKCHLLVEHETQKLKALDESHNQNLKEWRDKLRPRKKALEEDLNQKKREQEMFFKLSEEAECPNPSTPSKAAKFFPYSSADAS
Method in brief: as §1

LZK = target: T15, LZK (Homo sapiens, UniProt O43283); details: 1 μM
T15 construct: purchased Ambit Kinomescan (contract panel)
Method in brief: as §1

MARK3 = target: T16, MARK3 (Homo sapiens, UniProt P27448)
T16 construct: purchased Ambit Kinomescan (contract panel)
Method in brief: as §1

MAST1 = MAST1 (Homo sapiens, UniProt Q9Y2H9)
Method in brief: as §1

MST1 = MST1 (Homo sapiens, UniProt Q13043); details: 1 μM
Chain of MST1 (Q13043 whole entry): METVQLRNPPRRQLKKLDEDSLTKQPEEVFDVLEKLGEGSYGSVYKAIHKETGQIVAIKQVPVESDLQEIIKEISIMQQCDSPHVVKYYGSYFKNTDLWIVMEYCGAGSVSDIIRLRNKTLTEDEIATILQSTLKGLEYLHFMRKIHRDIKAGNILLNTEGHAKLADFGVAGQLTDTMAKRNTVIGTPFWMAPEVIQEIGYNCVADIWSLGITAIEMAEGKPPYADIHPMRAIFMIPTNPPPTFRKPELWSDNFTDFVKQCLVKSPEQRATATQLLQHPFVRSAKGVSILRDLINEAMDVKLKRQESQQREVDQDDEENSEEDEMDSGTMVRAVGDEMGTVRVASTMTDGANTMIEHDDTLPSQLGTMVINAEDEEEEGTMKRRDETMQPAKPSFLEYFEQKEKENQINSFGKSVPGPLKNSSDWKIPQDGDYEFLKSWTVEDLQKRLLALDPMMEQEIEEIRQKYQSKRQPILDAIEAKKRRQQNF
Method in brief: as §1

MYO3A = MYO3A (Homo sapiens, UniProt Q8NEV4)
Method in brief: as §1

NEK11 = target: T17, NEK11 (Homo sapiens, UniProt Q8NG66)
T17 construct: DNA tag (qPCR read-out)
Method in brief: as §1

NLK = NLK (Homo sapiens, UniProt Q9UBE8)
Method in brief: as §1

PIK3CA(E542K) = PIK3CA(E542K) (Homo sapiens, UniProt P42336, E542K)
Method in brief: as §1

PIK3CA(I800L) = target: T18, PIK3CA(I800L) (Homo sapiens, UniProt P42336, I800L)
T18 construct: DNA tag (qPCR read-out)
Method in brief: as §1

PKN2 = target: T19, PKN2 (Homo sapiens, UniProt Q16513)
T19 construct: purchased Ambit (KINOMEscan Max service)
Method in brief: as §1

ROS1 = target: T20, ROS1 (Homo sapiens, UniProt P08922)
T20 construct: DNA tag (qPCR read-out)
Method in brief: as §1

SRPK3 = target: T21, SRPK3 (Homo sapiens, UniProt Q9UPE1)
T21 construct: DNA tag (qPCR read-out)
T21 sequence (Q9UPE1 whole entry): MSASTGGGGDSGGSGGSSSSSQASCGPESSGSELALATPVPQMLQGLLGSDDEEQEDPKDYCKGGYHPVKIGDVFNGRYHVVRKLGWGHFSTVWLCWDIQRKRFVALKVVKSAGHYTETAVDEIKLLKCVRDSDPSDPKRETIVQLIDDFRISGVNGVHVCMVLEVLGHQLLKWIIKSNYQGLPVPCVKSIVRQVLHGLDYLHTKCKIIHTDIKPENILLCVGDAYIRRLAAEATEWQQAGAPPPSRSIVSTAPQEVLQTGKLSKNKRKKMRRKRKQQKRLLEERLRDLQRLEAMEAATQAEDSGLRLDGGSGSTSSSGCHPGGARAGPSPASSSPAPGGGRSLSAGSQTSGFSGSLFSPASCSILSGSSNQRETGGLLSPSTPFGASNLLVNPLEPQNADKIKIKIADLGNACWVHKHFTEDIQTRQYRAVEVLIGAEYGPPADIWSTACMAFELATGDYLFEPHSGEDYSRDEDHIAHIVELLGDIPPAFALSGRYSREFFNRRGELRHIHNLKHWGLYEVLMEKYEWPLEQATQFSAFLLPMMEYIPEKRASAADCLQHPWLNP
Method in brief: as §1

STK36 = target: T22, STK36 (Homo sapiens, UniProt Q9NRP7)
T22 construct: DNA tag (qPCR read-out)
Method in brief: as §1

TYRO3 = target: T23, TYRO3 (Homo sapiens, UniProt Q06418)
T23 construct: purchased Ambit Kinomescan (contract screening service)
Method in brief: as §1

Q: For `NCCCNc1nc2c(Br)c(Br)c(Br)c(Br)c2[nH]1` [Compound 11, N-(3-aminopropyl)-4,5,6,7-tetrabromo-1H-benzo[d]imidazol-2-amine], which remaining binding at 1 µM [1] is on record?
A: Its remaining binding at 1 µM is 64%.

Q: What about the remaining binding at 1 µM [2] of the same molecule?
A: The remaining binding at 1 µM was 100%.

Q: And the remaining binding at 1 µM (AKT2)?
A: The remaining binding at 1 µM was 99%.

Q: And the remaining binding at 1 µM (CAMK2A)?
A: The remaining binding at 1 µM was 96%.

Q: What about the remaining binding at 1 µM (CDK4-cyclinD3) of the same molecule?
A: The remaining binding at 1 µM was 92%.

Q: And the remaining binding at 1 µM (CDK5)?
A: Its remaining binding at 1 µM is 100%.

Q: And the remaining binding at 1 µM (CLK2)?
A: Its remaining binding at 1 µM is 31%.

Q: What about the “% binding” value (CSNK1G3) of the same molecule?
A: The value was 92%.

Q: And the remaining binding at 1 µM (DAPK1)?
A: Its remaining binding at 1 µM is 90%.

Q: And the remaining binding at 1 µM (DYRK1B)?
A: Its remaining binding at 1 µM is 7.4%.

Q: What about the remaining binding at 1 µM (EPHA1) of the same molecule?
A: The remaining binding at 1 µM was 100%.

Q: And the remaining binding at 1 µM (EPHB1)?
A: The remaining binding at 1 µM was 100%.

Q: And the remaining binding at 1 µM (ERK2)?
A: Its remaining binding at 1 µM is 100%.

Q: What about the remaining binding at 1 µM (ERK4) of the same molecule?
A: The remaining binding at 1 µM was 98%.

Q: And the remaining binding at 1 µM (FGR)?
A: The remaining binding at 1 µM was 100%.

Q: And the remaining binding at 1 µM (FLT3(D835Y))?
A: The remaining binding at 1 µM was 10%.

Q: What about the remaining binding at 1 µM (IRAK1) of the same molecule?
A: Its remaining binding at 1 µM is 52%.

Q: What about the remaining binding at 1 µM (IRAK3) of the same molecule?
A: Its remaining binding at 1 µM is 86%.

Q: What about the remaining binding at 1 µM (LIMK1) of the same molecule?
A: The remaining binding at 1 µM was 96%.

Q: What about the “% binding” value (LOK) of the same molecule?
A: Its value is 100%.

Q: What about the “% binding” value (LZK) of the same molecule?
A: Its value is 100%.

Q: And the remaining binding at 1 µM (MARK3)?
A: The remaining binding at 1 µM was 100%.

Q: And the remaining binding at 1 µM (MAST1)?
A: Its remaining binding at 1 µM is 95%.

Q: And the “% binding” value (MST1)?
A: The value was 100%.

Q: What about the remaining binding at 1 µM (MYO3A) of the same molecule?
A: The remaining binding at 1 µM was 100%.

Q: And the remaining binding at 1 µM (NEK11)?
A: Its remaining binding at 1 µM is 89%.

Q: What about the remaining binding at 1 µM (NLK) of the same molecule?
A: Its remaining binding at 1 µM is 100%.

Q: What about the remaining binding at 1 µM (PIK3CA(E542K)) of the same molecule?
A: The remaining binding at 1 µM was 98%.

Q: What about the remaining binding at 1 µM (PIK3CA(I800L)) of the same molecule?
A: The remaining binding at 1 µM was 100%.

Q: What about the remaining binding at 1 µM (PKN2) of the same molecule?
A: The remaining binding at 1 µM was 80%.

Q: What about the remaining binding at 1 µM (ROS1) of the same molecule?
A: Its remaining binding at 1 µM is 100%.

Q: And the remaining binding at 1 µM (SRPK3)?
A: The remaining binding at 1 µM was 100%.

Q: And the remaining binding at 1 µM (STK36)?
A: The remaining binding at 1 µM was 100%.

Q: What about the remaining binding at 1 µM (TYRO3) of the same molecule?
A: Its remaining binding at 1 µM is 100%.
